We go through twelve compounds from ChEMBL document CHEMBL1140787, “Discovery of beta-benzamido hydroxamic acids as potent, selective, and orally bioavailable TACE inhibitors” (Bioorg Med Chem Lett, 2008).

What is called IC50 is the concentration that gives 50% inhibition. In general, Papp refers to the rate of passage across a membrane or cell layer, normalised by area and donor concentration. The term Ki denotes the equilibrium dissociation constant of an inhibitor or competing ligand from its target. The low end stands for a stronger hold on the target, the high end for a looser hold on the target. One may read the ED50 as the dose at which the effect has come halfway, by size or by number of responders. Higher therefore signals weaker potency. Broadly, the fraction unbound is the share of the substance not bound to proteins or other matrix. Read a high fraction unbound as weak binding. As usually defined, the bioavailability is the share of a dose that reaches the circulation, judged against a reference dose that is usually intravenous. A lower bioavailability goes with poor availability. The term Tmax denotes the time from dosing to the highest level. One may read the half-life as the time needed for the level to fall by half in the phase considered. Read a high half-life as slow decline. A word on the AUC: it is concentration integrated over time. Low values mean less exposure, high ones more exposure. The clearance is a measure of how efficiently the substance is removed, as volume per time.

One data set concerns Blood. The data set is described as follows: Inhibition of LPS-stimulated TNFalpha release in human whole blood. The format is functional, tissue-based.
For data set [1], the target named is Disintegrin and metalloproteinase domain-containing protein 17 (Sus scrofa, UniProt O77636). The experiment in a line: Inhibition of pig TACE.
Disintegrin and metalloproteinase domain-containing protein 17, sequence (O77636 whole entry, the tested form may be a part): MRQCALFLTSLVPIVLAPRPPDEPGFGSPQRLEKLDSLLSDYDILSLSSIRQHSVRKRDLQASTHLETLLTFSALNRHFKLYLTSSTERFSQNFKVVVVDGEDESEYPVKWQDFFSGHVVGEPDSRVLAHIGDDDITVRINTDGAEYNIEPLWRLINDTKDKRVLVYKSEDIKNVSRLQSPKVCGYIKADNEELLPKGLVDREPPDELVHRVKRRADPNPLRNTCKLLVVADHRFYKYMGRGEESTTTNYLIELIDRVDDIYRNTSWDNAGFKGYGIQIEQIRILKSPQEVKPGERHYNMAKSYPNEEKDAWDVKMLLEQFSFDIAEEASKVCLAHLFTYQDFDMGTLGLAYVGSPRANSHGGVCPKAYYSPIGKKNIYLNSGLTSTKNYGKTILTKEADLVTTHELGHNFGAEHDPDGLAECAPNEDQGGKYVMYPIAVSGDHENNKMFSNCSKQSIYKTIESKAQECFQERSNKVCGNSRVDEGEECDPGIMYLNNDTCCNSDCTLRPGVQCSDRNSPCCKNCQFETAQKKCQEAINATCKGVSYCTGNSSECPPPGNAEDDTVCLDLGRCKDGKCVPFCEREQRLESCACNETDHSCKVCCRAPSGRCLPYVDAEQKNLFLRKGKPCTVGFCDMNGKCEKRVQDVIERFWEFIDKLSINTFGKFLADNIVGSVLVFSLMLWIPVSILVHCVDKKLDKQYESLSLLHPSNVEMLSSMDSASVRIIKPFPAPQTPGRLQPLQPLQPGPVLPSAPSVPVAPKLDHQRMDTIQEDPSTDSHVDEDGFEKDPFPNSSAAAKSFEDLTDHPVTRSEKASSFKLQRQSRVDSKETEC
Data set [2] in a line: Permeability across human Caco-2 cell membrane. Type of data set: ADME, cell-based. For orientation: Caco-2 cells form a polarised layer with tight junctions and transporters.
Data set [3] deals with Macrophage metalloelastase (Homo sapiens, UniProt P39900). The data set is described as follows: Inhibition of MMP12.
Macrophage metalloelastase, sequence (P39900 whole entry): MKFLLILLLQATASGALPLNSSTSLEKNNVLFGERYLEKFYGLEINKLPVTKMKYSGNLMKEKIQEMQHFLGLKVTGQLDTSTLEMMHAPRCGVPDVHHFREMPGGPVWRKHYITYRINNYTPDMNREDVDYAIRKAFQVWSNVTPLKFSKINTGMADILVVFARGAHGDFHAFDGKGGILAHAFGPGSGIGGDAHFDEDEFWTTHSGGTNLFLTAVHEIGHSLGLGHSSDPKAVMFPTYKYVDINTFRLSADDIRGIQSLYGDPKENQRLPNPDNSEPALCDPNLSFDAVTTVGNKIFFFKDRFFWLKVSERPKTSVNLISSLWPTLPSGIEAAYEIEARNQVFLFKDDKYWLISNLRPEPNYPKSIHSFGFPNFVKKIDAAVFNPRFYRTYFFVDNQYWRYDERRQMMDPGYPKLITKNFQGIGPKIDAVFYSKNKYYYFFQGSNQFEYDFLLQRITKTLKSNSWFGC
In the next data set the target is Stromelysin-1 (Homo sapiens, UniProt P08254). The data set is described as follows: Inhibition of MMP3.
Stromelysin-1, sequence (P08254 whole entry): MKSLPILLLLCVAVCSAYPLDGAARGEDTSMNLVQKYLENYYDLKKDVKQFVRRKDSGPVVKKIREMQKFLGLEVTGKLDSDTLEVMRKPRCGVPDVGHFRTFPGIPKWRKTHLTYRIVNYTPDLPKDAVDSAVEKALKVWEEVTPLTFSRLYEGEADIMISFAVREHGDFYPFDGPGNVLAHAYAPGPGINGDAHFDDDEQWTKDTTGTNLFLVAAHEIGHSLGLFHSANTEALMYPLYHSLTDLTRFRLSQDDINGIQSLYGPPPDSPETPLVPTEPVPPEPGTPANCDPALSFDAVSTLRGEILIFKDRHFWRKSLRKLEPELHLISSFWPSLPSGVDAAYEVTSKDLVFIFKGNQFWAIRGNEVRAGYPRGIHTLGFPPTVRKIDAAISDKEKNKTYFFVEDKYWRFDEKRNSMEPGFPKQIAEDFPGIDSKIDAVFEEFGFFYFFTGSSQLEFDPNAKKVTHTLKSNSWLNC
In another data set the test system is Rattus norvegicus. The data set is described as follows: Inhibition of LPS-induced TNFalpha production in po dosed rat endotoxemia model. Type of data set: functional.
The nature of data set [4]: Fraction unbound in rat serum. The format is ADME, cell-free.
The nature of data set [5]: Oral bioavailability in Beagle dog at 8 mg/kg. The note with it: in vivo. The format is ADME, organism-based, Canis lupus familiaris.
A short description of data set [6]: Tmax in Sprague-Dawley rat at 40 mg/kg, po. Type of data set: ADME, organism-based. Further details: dose 40 mg/kg, route oral. The note with it: in vivo.
Data set [7] is described as follows: Half life in Sprague-Dawley rat at 2 mg/kg, iv. The format is ADME, organism-based. Set-up: dose 2 mg/kg, route intravenous. The note with it: in vivo.
Data set [8] is described as follows: AUC in Beagle dog at 2 mg/kg, iv. The format is ADME, organism-based, Canis lupus familiaris. Set-up: dose 2 mg/kg, route intravenous. The note with it: plasma.
A short description of data set [9]: Fraction unbound in dog serum. Type of data set: ADME, cell-free, Canis lupus familiaris.
Data set [10] can be described thus: Half life in Beagle dog at 2 mg/kg, iv. Type of data set: ADME, organism-based, Canis lupus familiaris. Further details: dose 2 mg/kg, route intravenous. The note with it: in vivo.
Data set [11] in a line: AUC in Sprague-Dawley rat at 40 mg/kg, po. Type of data set: ADME, organism-based. Set-up: dose 40 mg/kg, route oral. The note with it: plasma.
A further data set addresses Stromelysin-2 (Homo sapiens, UniProt P09238). The data set is described as follows: Inhibition of MMP10.
The target in the next data set is T1, Matrilysin (Homo sapiens, UniProt P09237).
T1 sequence (P09237 whole entry): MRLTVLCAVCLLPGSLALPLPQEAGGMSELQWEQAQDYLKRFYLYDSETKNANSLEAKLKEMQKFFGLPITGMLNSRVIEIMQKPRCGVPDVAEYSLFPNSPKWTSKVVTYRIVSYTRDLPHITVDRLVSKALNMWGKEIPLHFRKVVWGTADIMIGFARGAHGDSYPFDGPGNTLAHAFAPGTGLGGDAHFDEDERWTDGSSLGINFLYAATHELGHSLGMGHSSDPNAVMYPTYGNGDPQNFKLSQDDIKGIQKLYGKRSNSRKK
The data set is described as follows: Inhibition of MMP7.

A short description of data set [12]: Volume of distribution at steady state in Beagle dog at 2 mg/kg, iv. Type of data set: ADME, organism-based, Canis lupus familiaris. Further details: dose 2 mg/kg, route intravenous. The note with it: in vivo, read-out: Vdss.
Data set [13] can be described thus: Tmax in Beagle dog at 8 mg/kg, po. The format is ADME, organism-based, Canis lupus familiaris. Set-up: dose 8 mg/kg, route oral. The note with it: in vivo.
Data set [14] can be described thus: Clearance in Beagle dog at 2 mg/kg, iv. Type of data set: ADME, organism-based, Canis lupus familiaris. Further details: dose 2 mg/kg, route intravenous. The note with it: in vivo.
Data set [15] is described as follows: AUC in Sprague-Dawley rat at 2 mg/kg, iv. Type of data set: ADME, organism-based. Set-up: dose 2 mg/kg, route intravenous. The note with it: plasma.
Data set [16] in a line: AUC in Beagle dog at 8 mg/kg, po. The format is ADME, organism-based, Canis lupus familiaris. Further details: dose 8 mg/kg, route oral. The note with it: plasma.
Data set [17] can be described thus: Volume of distribution at steady state in Sprague-Dawley rat at 2 mg/kg, iv. Further details: dose 2 mg/kg, route intravenous. Type of data set: ADME, organism-based. The note with it: in vivo, read-out: Vdss.
The nature of data set [18]: Fraction unbound in human serum. Type of data set: ADME, cell-free.
The target of another data set is Cytochrome P450 3A4 (Homo sapiens, UniProt P08684). The experiment in a line: Inhibition of CYP3A4 at 20 uM. The format is ADME.
Cytochrome P450 3A4, sequence (P08684 whole entry): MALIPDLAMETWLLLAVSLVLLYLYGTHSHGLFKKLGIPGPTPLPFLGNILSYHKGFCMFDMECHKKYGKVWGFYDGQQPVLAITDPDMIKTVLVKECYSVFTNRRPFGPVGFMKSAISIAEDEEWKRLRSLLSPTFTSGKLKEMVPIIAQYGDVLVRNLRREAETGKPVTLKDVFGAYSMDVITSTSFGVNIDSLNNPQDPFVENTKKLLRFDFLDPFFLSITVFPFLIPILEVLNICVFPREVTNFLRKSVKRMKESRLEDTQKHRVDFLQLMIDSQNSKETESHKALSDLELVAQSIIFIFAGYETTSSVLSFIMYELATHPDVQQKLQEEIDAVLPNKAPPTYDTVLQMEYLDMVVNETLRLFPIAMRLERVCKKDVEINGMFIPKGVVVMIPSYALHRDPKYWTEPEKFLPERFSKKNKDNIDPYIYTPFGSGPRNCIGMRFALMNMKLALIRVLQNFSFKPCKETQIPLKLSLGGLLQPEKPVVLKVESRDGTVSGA
The nature of data set [19]: Oral bioavailability in Sprague-Dawley rat at 40 mg/kg. The note with it: in vivo. Type of data set: ADME, organism-based.
Data set [20] can be described thus: Clearance in Sprague-Dawley rat at 2 mg/kg, iv. The format is ADME, organism-based. The note with it: in vivo. Set-up: dose 2 mg/kg, route intravenous.
For a further data set, the system named is Mus musculus. The experiment in a line: Inhibition of LPS-induced TNFalpha production in po dosed mouse endotoxemia model. The format is functional.

Stromelysin-2, sequence (P09238 whole entry): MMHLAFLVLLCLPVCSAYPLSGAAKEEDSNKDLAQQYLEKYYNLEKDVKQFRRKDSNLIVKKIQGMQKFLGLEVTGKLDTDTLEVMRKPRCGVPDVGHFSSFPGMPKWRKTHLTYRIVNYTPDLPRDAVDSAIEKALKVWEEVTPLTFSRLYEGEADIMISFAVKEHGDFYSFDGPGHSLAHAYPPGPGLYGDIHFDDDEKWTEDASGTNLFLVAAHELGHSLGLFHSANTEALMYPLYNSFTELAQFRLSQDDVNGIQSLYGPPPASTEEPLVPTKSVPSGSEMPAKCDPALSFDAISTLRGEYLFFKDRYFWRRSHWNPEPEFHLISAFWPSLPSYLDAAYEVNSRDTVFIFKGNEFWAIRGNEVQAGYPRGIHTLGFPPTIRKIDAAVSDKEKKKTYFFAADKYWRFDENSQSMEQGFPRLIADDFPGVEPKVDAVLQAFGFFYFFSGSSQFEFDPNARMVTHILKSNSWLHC

For the compound `Cc1cc(COc2ccc(C(=O)N[C@@H]3CNCC[C@@H]3C(=O)NO)cc2)c2ccccc2n1`, the IC50 in the data set on Blood was 187 nM; in data set [1], 1 nM. Besides, in [2], the Papp worked out at 0.2 ×10⁻⁶ cm/s.

`Cc1cc(COc2ccc(C(=O)N[C@H]3CNCC[C@@H]3C(=O)NO)cc2)c2ccccc2n1`: the IC50 with Blood was 393 nM; in data set [1] it was below 1 nM.

Take `Cc1cc(COc2ccc(C(=O)N[C@@H]3CN(CCN(C)C)CC[C@@H]3C(=O)NO)cc2)c2ccccc2n1`: the half-inhibitory concentration (IC50) in the data set with Blood worked out at 55 nM; in data set [1], 2 nM. This compound displayed a Papp in [2] of 0.1 ×10⁻⁶ cm/s.

`Cc1cc(COc2ccc(C(=O)N[C@@H]3COCC[C@@H]3C(=O)NO)cc2)c2ccccc2n1`: the IC50 in the data set on Blood is 290 nM; in data set [1], below 1 nM. The Papp in data set [2] is 0.4 ×10⁻⁶ cm/s.

Consider `Cc1cc(COc2ccc(C(=O)N[C@@H]3CCCC[C@H]3C(=O)NO)cc2)c2ccccc2n1`, for which the concentration for half-maximal inhibition (IC50) was above 3000 nM with Blood and 2 nM in data set [1].

As for `Cc1cc(COc2ccc(C(=O)N[C@@H]3CCCO[C@@H]3C(=O)NO)cc2)c2ccccc2n1`, the figures for the IC50 (in the data set on Blood; in data set [1]) were 4110 nM and 3 nM, respectively. Moreover, the apparent permeability coefficient (Papp) in [2] amounted to 0.06 ×10⁻⁶ cm/s.

With `Cc1cc(COc2ccc(C(=O)N[C@@H]3CN(C(C)(C)C)CC[C@@H]3C(=O)NO)cc2)c2ccccc2n1`, the IC50 in the data set with Blood stood at 44 nM; in data set [1] it was 2 nM. In data set [2], this compound came in with an apparent permeability (Papp) of 0.6 ×10⁻⁶ cm/s.

Take `Cc1cc(COc2ccc(C(=O)NC3CCC3C(=O)NO)cc2)c2ccccc2n1` (configuration not stated): the IC50 was found to be 2860 nM in the data set with Blood and 1 nM in [1]. This compound also had a Papp in data set [2] of 0.4 ×10⁻⁶ cm/s.

Consider `Cc1cc(COc2ccc(C(=O)N[C@@H]3CCNC[C@@H]3C(=O)NO)cc2)c2ccccc2n1`, for which the figures for the IC50 (in the data set with Blood; in [1]) were 620 nM and 24 nM, respectively. For the same compound, in data set [2], the Papp came out at 0.2 ×10⁻⁶ cm/s.

With `Cc1cc(COc2ccc(C(=O)N[C@@H]3CCCC[C@@H]3C(=O)NO)cc2)c2ccccc2n1`, the IC50 amounted to 890 nM in the data set with Blood and 2 nM in data set [1]. The same compound yielded a Papp in data set [2] of 3.4 ×10⁻⁶ cm/s.

`Cc1cc(COc2ccc(C(=O)N[C@@H]3CCOC[C@@H]3C(=O)NO)cc2)c2ccccc2n1`: the inhibitory constant (Ki) is below 100 nM in data set [3]; below 100 nM at Stromelysin-1; below 100 nM at Stromelysin-2; below 100 nM on Matrilysin; 0.15 nM in data set [1]. Moreover, the ED50 was determined as 3 mg/kg with Rattus norvegicus and 2.2 mg/kg in the data set with Mus musculus. Also, the unbound share (fraction unbound) in [4] was determined as 0.038; in data set [9], 0.17; in [18], 0.075. The bioavailability amounted to 96% in data set [5] and 58% in data set [19]. For the same compound, the results for the time to peak (Tmax) in data set [6] and in data set [13] were 24 min and 12 min, respectively. For the same compound, the half-life in data set [7] is 84 min; in data set [10], 96 min. For the same compound, the exposure (AUC) amounted to 2.7 µM·h in [8], 65 µM·h in [11], 5.7 µM·h in [15] and 11 µM·h in [16]. Further, the figures for the IC50 (in the data set on Blood; in data set [1]) were 130 nM and below 1 nM, respectively. Moreover, the Vd is 1.6 L/kg in [12] and 0.4 L/kg in data set [17]. Moreover, the clearance in data set [14] was 28.3 mL/min/kg; in data set [20], 11.7 mL/min/kg. Also, on Cytochrome P450 3A4, the Activity result is listed as “Not Active”. In data set [2], this compound showed a Papp of 2.3 ×10⁻⁶ cm/s.

For the compound `Cc1cc(COc2ccc(NC(=O)[C@@H]3[C@@H](C(=O)NO)CCCN3C)cc2)c2ccccc2n1`, in the data set with Blood, inhibition was half-maximal at 20 nM (IC50).
